Organism: Rattus norvegicus
Assay: Effective concentration for relaxation of isolated rat aortic strips, submaximally contracted with phenylephrine at 0.1 uM was determined
Assay type: functional
Conditions: Aorta

With `O=[N+]([O-])OCC(CO[N+](=O)[O-])O[N+](=O)[O-]` [NITROGLYCERIN] the EC50 was 1.9 µM.

From ChEMBL document CHEMBL1135873, “Neuroprotection against ischemic brain injury conferred by a novel nitrate ester” (Bioorg Med Chem Lett, 2002)
